PubChem BioAssay (NCI)
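Compound exposure: 48 hours, 5 concentrations, 96-well plates. Abbreviation: GI50, concentration required for 50% inhibition of growth. TGI: concentration producing complete growth inhibition.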

Key:
Assay in all cases: NCI-60 cell line screen, 48 h
CAKI-1 renal = tested on: CAKI-1 renal
HCT-116 colon = tested on: HCT-116 colon
NCI-H460 lung = tested on: NCI-H460 lung
SF-268 CNS = tested on: SF-268 CNS
SK-MEL-28 melanoma = tested on: SK-MEL-28 melanoma
SNB-19 CNS = tested on: SNB-19 CNS
UACC-62 melanoma = tested on: UACC-62 melanoma
UO-31 renal = tested on: UO-31 renal
HL-60(TB) leukemia = tested on: HL-60(TB) leukemia
IGROV1 ovarian = tested on: IGROV1 ovarian

Row | SMILES | GI50 (CAKI-1 renal) | TGI (CAKI-1 renal) | GI50 (HCT-116 colon) | TGI (HCT-116 colon) | GI50 (NCI-H460 lung) | TGI (NCI-H460 lung) | GI50 (SF-268 CNS) | TGI (SF-268 CNS) | GI50 (SK-MEL-28 melanoma) | TGI (SK-MEL-28 melanoma) | GI50 (SNB-19 CNS) | TGI (SNB-19 CNS) | GI50 (UACC-62 melanoma) | TGI (UACC-62 melanoma) | GI50 (UO-31 renal) | TGI (UO-31 renal) | TGI (HL-60(TB) leukemia) | TGI (IGROV1 ovarian) | GI50 (HL-60(TB) leukemia) | GI50 (IGROV1 ovarian)
1 | COc1cc(/C=C/C(=O)c2ccc(SC)cc2)cc(OC)c1OC | 16.1 µM | 32.2 µM | 3.3 µM | 13.7 µM | 15 µM | 32.6 µM | 16 µM | 37.8 µM | 16.9 µM | 32.5 µM | 12.6 µM | 26.4 µM | 3.46 µM | 13.5 µM | 10.8 µM | 23 µM |  |  |  | 
2 | CCn1cc(C(=O)O)c(=O)c2cc(F)c(N3CCNCC3)nc21 |  |  |  | > 100 µM |  | > 100 µM |  | > 100 µM |  | > 100 µM |  | > 100 µM |  | > 100 µM |  | > 100 µM | > 100 µM | > 100 µM |  | 
3 | Nc1c2c(c(O)c3c1=C(CO)C=N3)=NCCS2=O (stereo not given) |  |  | 2.25 µM | 4.95 µM | 0.649 µM | 2.31 µM | 1.24 µM | 3.27 µM |  |  | 1.59 µM | 3.07 µM | 1.71 µM | 3.39 µM | 1.68 µM | 3.5 µM | 4.5 µM | 4.29 µM | 1.94 µM | 1.9 µM
4 | COc1ccc2c(C(=O)NCCCCCC(=O)O)cc3cc4c(cc3c2c1)OCO4 | > 100 µM | > 100 µM | > 100 µM | > 100 µM | > 100 µM | > 100 µM | 58 µM | > 100 µM | > 100 µM | > 100 µM | > 100 µM | > 100 µM | 83 µM | > 100 µM |  |  |  |  |  | 
5 | Cc1nc(N(C)C)nc(-c2cccc(-c3ccn(CCN(C)C)n3)c2)c1C | 19.5 µM | > 20 µM | > 20 µM | > 20 µM | > 20 µM | > 20 µM | > 20 µM | > 20 µM | > 20 µM | > 20 µM |  |  | > 20 µM | > 20 µM | 9.63 µM | > 20 µM | > 20 µM | > 20 µM | > 20 µM | > 20 µM
6 | Cc1ccc(Sc2cc([N+](=O)[O-])cc(Sc3ccc(C)cc3)c2Sc2ccc(C)cc2)cc1 |  | > 100 µM |  | > 100 µM |  | > 100 µM |  | > 100 µM |  |  |  | > 100 µM |  | > 100 µM |  | > 100 µM | > 100 µM | > 100 µM |  | 
7 | O=C1CCC(=O)C12CCc1ccccc12 |  | > 100 µM |  |  |  | > 100 µM |  | > 100 µM |  | > 100 µM |  |  |  | > 100 µM |  | > 100 µM | > 100 µM | > 100 µM |  | 
8 | OC1OC2COC(c3ccccc3)OC2C(O)C1O (stereo not given) |  | > 100 µM |  | > 100 µM |  | > 100 µM |  | > 100 µM |  |  |  | > 100 µM |  | > 100 µM |  | > 100 µM | > 100 µM | > 100 µM |  | 
9 | Nc1c(C(=O)Nc2cccc3ccccc23)sc2nc3c(cc12)CCCCCC3 |  |  | 1.72 µM | > 50 µM | 1.76 µM | > 50 µM | 2.77 µM | > 50 µM | > 50 µM | > 50 µM | 2.62 µM | > 50 µM | 1.62 µM | > 50 µM | 5.6 µM | > 50 µM | > 50 µM | > 50 µM | 1.65 µM | 2.31 µM
10 | O=C1C2Cc3ccccc3CN2C(=O)N1CCN1CCOCC1 (stereo not given) |  | > 100 µM |  |  |  | > 100 µM |  | > 100 µM |  | > 100 µM |  | > 100 µM |  | > 100 µM |  | > 100 µM | > 100 µM | > 100 µM |  | 
11 | CC(NC(=O)C1(N)CCCC1)C(=O)O (stereo not given) |  | > 100 µM |  | > 100 µM |  |  |  | > 100 µM |  | > 100 µM |  | > 100 µM |  | > 100 µM |  | > 100 µM | > 100 µM | > 100 µM |  | 
12 | Nc1c(-c2ccc(-c3c(N)[n+]([O-])c4ccccc4[n+]3[O-])cc2)[n+]([O-])c2ccccc2[n+]1[O-] |  | 20.3 µM |  |  |  | 37.3 µM |  | 66.2 µM |  | 20.9 µM |  | 29 µM |  | 24.3 µM |  | 32.6 µM | > 100 µM | 47.5 µM |  | 
13 | CC(=O)O[C@H]1CC[C@@]2(C)[C@@H](CC[C@@H]3[C@@H]2CC(=O)[C@@]2(C)[C@H]3C[C@@H]3CC(C)=CC(=O)[C@@H]32)C1 |  | > 100 µM |  | > 100 µM |  |  |  | > 100 µM |  | > 100 µM |  | > 100 µM |  | > 100 µM |  | > 100 µM | 27.8 µM | > 100 µM |  | 
14 | Cc1cc(=O)[nH]c2c1C(=O)C(=O)C=C2 | 19.4 µM | 37.4 µM | 18.2 µM | 35.4 µM | 27.1 µM | 74 µM | 18.7 µM | 43.7 µM | > 100 µM | > 100 µM | 42.7 µM | > 100 µM | 36.4 µM | > 100 µM | 77.3 µM | > 100 µM |  | > 100 µM |  | 48.6 µM
15 | O=C1OC(/C=C/c2ccccc2)C(=O)C1=O (stereo not given) |  |  |  |  |  | > 100 µM |  | > 100 µM |  | > 100 µM |  | > 100 µM |  | > 100 µM |  | > 100 µM | > 100 µM | > 100 µM |  | 
16 | O=c1cc(/C=C/c2ccccc2)c2ccc(O/C(=C\c3ccccc3)c3nc4ccccc4c(=O)o3)cc2o1 |  | > 100 µM |  | 36.5 µM |  | > 100 µM |  | 35.8 µM |  | 34.5 µM |  | > 100 µM |  | > 100 µM |  |  | 45.5 µM | > 100 µM |  | 
17 | Cn1c(=O)c2nc3sc4ccccc4c(=N)n3c2n(C)c1=O |  | > 100 µM |  |  |  | > 100 µM |  | > 100 µM |  | > 100 µM |  | > 100 µM |  | > 100 µM |  | > 100 µM | > 100 µM | > 100 µM |  | 
18 | O=C1OC(=O)C2C1C1(c3ccccc3)OC2(c2ccccc2)c2c(Br)c(Br)c(Br)c(Br)c21 (stereo not given) |  | > 100 µM |  | > 100 µM |  | > 100 µM |  | > 100 µM |  |  |  | > 100 µM |  | > 100 µM |  | > 100 µM | > 100 µM | > 100 µM |  | 
19 | CC1(C)OC(=O)C(c2ccsc2)C(=O)O1 |  | > 100 µM |  | > 100 µM |  | > 100 µM |  | > 100 µM |  | > 100 µM |  | > 100 µM |  | > 100 µM |  | > 100 µM | > 100 µM |  |  | 
